Laboratory results published in article PMC7169385, “Metabolic Stability of New Mito-Protective Short-Chain Naphthoquinones” (Pharmaceuticals, 2020).
Values joined by “and” are separate entries in the source; they are usually repeats but may differ in a detail not shown here. Equal entries are not always repeated.

How the values were obtained:
HepG2 cells [1] = experiment: Metabolic stability study in HepG2 cells with RP-LC quantitation; assay type: in vitro ADME, human; settings: for metabolic stability (in words) / metabolic conversion to the oxidized form: up to 6 h; for metabolic conversion to the oxidized form: by retention time, 3 to 5, 14 to 15, 4 to UTAS#94
Protocol: HepG2 cells were cultured in DMEM culture media in an atmosphere of 95% humidified air and 5% CO2 at 37 °C. Cells were passaged twice a week when reaching approximately 75% confluency. Cell monolayers were washed with PBS once before harvested with 0.5 mL EDTA and 0.5 mL trypsin for 3.5 min and counted using a hemocytometer (Paul Marienfeld GmbH, Lauda-Königshofen, Germany). Cells were routinely grown in 25 cm^2 cell culture flasks (2 μm vent cap, Corning, Victoria, Australia) with 2 × 10^6 cells seeded in 5 mL culture media. After thawing from liquid nitrogen storage, cells were passaged for at least 2–3 weeks to reach steady cumulative growth rates before used for any experiments.
To effectively compare the metabolic stability of our novel SCQs to the reference compound idebenone, a cell culture system had to be developed that would replicate the high metabolic conversion of idebenone in the liver observed in vivo [15, 16, 17]. We therefore employed the hepatic cell line HepG2 to expose the test compounds to hepatic-like enzymatic activities. In addition, the test concentration for SCQs and idebenone had to take into consideration two opposing factors. On the one hand the assay would need to contain sufficient test compound to maximize detection accuracy, on the other hand, the concentration needed to be below the levels that might induce toxicity towards the cultured cells. Based on previous data, no significant cell loss was observed when HepG2 cells were treated with most SCQs at a concentration of 200 μM for 24 h, which led us to select the lower concentration of 40 μM as test concentration. […] We therefore selected the lowest cell concentration (2.5 × 10^5 cells in 2 mL culture media) for this assay.
Log phase HepG2 cells were seeded at 2.5 × 10^5 cells well^−1 in tissue culture-treated 6-well plates (Corning, Victoria, Australia) and allowed to adhere overnight. After one day, the culture media was replaced with fresh culture media (2 mL well^−1) containing the test compounds (12 parallel wells per SCQ). After incubation of cells with test compounds for up to 6 hours, the cell culture media containing the residual SCQs was removed from the six-well plates. Then, 1 mL of cell culture media containing each tested compound was collected at different time points (t = 0, 2 h, 4 h, 6 h). Several methods of sample preparation were tested (e.g., dilution with organic solvents followed by evaporation) and the most suited approach was identified. Each sample (1 mL) was mixed 1:1 with ACN, vortexed for 10 s, and then centrifuged at 2000× g for 10 min at 25 °C. 1 mL of each supernatant was diluted 1:1 in purified water and filtered using 0.45 μm filters prior to immediate analysis by RP-LC. The final concentration of tested compounds for RP-LC analysis was ≤10 μM.
The RP-LC method was developed so that ≤10 μM of each SCQ could be quantified with acceptable repeatability (RSD%) and recovery (%). The mobile phase gradient was adjusted to generate a retention time (RT) of all compounds between 3.00–9.05 min (Table S1). The final conditions included a gradient flow of mobile phase B: 25% (same ACN% in the sample) for 2 min, 25–95% for 3 min, 95% for 4 min, 95–25% for 1 min, and 25% for 5 min (total run t = 15 min, including column post-conditioning). The injection volume (2–20 μL) and detection wavelength (210 nm, 230 nm, 254 nm, 480 nm) were then varied to optimize sensitivity, with 20 μL sample injection volume and detection at 210 nm identified as ideal (Figure S3). Supplementary Table S1 summarizes the analytical figures of merit for the RP-LC of all the compounds. […] The limit of quantification (LOQ) of each compound was established as 1 μM. RSD% (n = 3) at all concentrations (1.0 μM, 2.5 μM, 5.0 μM, 7.5 μM, and 10 μM) were between 0.4–7.6%. […] The above values for analytical figures of merit were considered acceptable for determining metabolic stability of the compounds with concentrations ≤10 μM. […]

HepG2 cells [2] = tested on: HepG2 cells; set-up: method as in PMID 30996858; settings: ref [11], cited from earlier work; for In vitro Cytoprotection (%): HepG2, 10 μM SCQ, rotenone, cell survival relative to untreated cells (27.9 ± 7.9%), mean ± SD
[3] = tested on: idebenone metabolism in HepG2 cells; experiment: Idebenone metabolism in HepG2 cells with or without 5; assay type: in vitro ADME, human; settings: HepG2, 6 h
Protocol: The conversion from the L-phenylalaninol derivative 3 to the L-phenylalanine derivative 5 appeared to reach a plateau at ~10% conversion from t = 2 h and persisted for the entire test period until t = 6 h. […] A concentration series of the unstable reference SCQ idebenone was tested for metabolic stability for 6 h with or without 40 μM 5 (Figure 4). […] Future studies will need to address the type of inhibition and to identify the specific enzyme that is inhibited.
Figure 4 Reduced idebenone metabolism in the presence of the L-phenylalanine derivative 5. Data was expressed as mean ± SEM from three independent experiments, with 4 data points each. Non-linear fits and two-way ANOVA were performed for comparisons between with or without 5 supplemented: *** p < 0.001, * p < 0.033.

[4] = set-up: method as in PMID 19125241; settings: single dose of 150 mg; ref [15]; cited from earlier work

Row | Structure (SMILES) | metabolic stability (in words) (HepG2 cells [1]; HepG2, 40 μM) | In vitro Cytoprotection (%) (HepG2 cells [2]) | also measured
1 | CC1=C(CCCC(=O)N[C@H](CO)c2ccccc2)C(=O)c2ccccc2C1=O [Compound 1] | without a significant metabolic conversion | 83.8 ± 19.9% | 
2 | CC1=C(CCCC(=O)N[C@@H](CO)c2ccccc2)C(=O)c2ccccc2C1=O [Compound 2] | without a significant metabolic conversion | 87.6 ± 19.7% | 
3 | CC1=C(CCCC(=O)N[C@H](CO)Cc2ccccc2)C(=O)c2ccccc2C1=O [Compound 3] | much less stable than its unnatural D-enantiomer 4 | 93.1 ± 13.7% | 
4 | CC1=C(CCCC(=O)N[C@@H](CO)Cc2ccccc2)C(=O)c2ccccc2C1=O [Compound 4] | without a significant metabolic conversion | 80.0 ± 21.1% | metabolic conversion to the oxidized form (HepG2 cells [1]; HepG2, 40 μM): no conversion was detected
5 | CC1=C(CCCC(=O)N[C@@H](Cc2ccccc2)C(=O)O)C(=O)c2ccccc2C1=O [Compound 5] | without a significant metabolic conversion | 100.3 ± 17.3% | stability of 5 in combination with idebenone ([3]; 40 μM 5, all concentrations of idebenone): stable; effect on idebenone metabolism ([3]; 40 μM 5, from 20 μM idebenone onward): significant reduction of idebenone metabolism
6 | CC1=C(CCCCC(=O)N[C@@H](Cc2ccccc2)C(=O)O)C(=O)c2ccccc2C1=O [Compound 6] | without a significant metabolic conversion | 90.7 ± 15.6% | 
7 | CC1=C(CCCC(=O)NCCc2ccc(O)cc2)C(=O)c2ccccc2C1=O [Compound 7] | less stable | 91.7 ± 15.6% | 
8 | CC1=C(CCCCC(=O)NCCc2ccc(O)cc2)C(=O)c2ccccc2C1=O [Compound 8] | increased metabolic stability | 91.8 ± 9.8% | 
9 | CC1=C(CCCCCC(=O)NCCc2ccc(O)cc2)C(=O)c2ccccc2C1=O [Compound 9] | increased metabolic stability | 85.2 ± 9.5% | 
10 | CC1=C(CCCC(=O)N[C@@H](CC(C)C)C(=O)O)C(=O)c2ccccc2C1=O [Compound 10] | without a significant metabolic conversion | 98.7 ± 10.9% | 
11 | COc1ccc(CCNC(=O)CCCC2=C(C)C(=O)c3ccccc3C2=O)cc1OC [Compound 11] |  | 95.9 ± 19.4% | 
12 | CCCCNC(=O)CCCC1=C(C)C(=O)c2ccccc2C1=O [Compound 12] |  | 82.0 ± 7.1% | 
13 | COC(=O)[C@@H](NC(=O)CCCC1=C(C)C(=O)c2ccccc2C1=O)c1ccccc1 [Compound 13] |  | 86.1 ± 5.0% | 
14 | CC1=C(CCCC(=O)N2CCCC2CO)C(=O)c2ccccc2C1=O (stereo not drawn) [Compound 14] |  | 100.7 ± 28.4% | metabolic conversion to the oxidized form (HepG2 cells [1]; HepG2, 40 μM): not detected at all
15 | CC1=C(CCCC(=O)N2CCCC2C(=O)O)C(=O)c2ccccc2C1=O (stereo not drawn) [Compound 15] |  | 92.7 ± 7.6% | 
16 | CC1=C(SCCC(=O)O)C(=O)c2ccccc2C1=O [Compound 16] | significantly reduced metabolic stability |  | 
17 | COC1=C(OC)C(=O)C(CCCCCCCCCCO)=C(C)C1=O [Idebenone, reference compound] |  | 66.2 ± 12.0% | remaining at t = 6 h (HepG2 cells [1]; HepG2 2.5 × 10^5 cells per well, 40 μM, 6 h, normalized to t = 0): ~ 27.3%; metabolized drug after 2 h (HepG2 cells [1]; HepG2, 40 μM, 2 h, three cell densities (2.5 × 10^5 to 1.0 × 10^6 cells in 2 mL)): ~ 50%; metabolized drug after 4 h (HepG2 cells [1]; HepG2, 40 μM, 4 h, three cell densities (2.5 × 10^5 to 1.0 × 10^6 cells in 2 mL)): ~76%; t1/2 in vivo [4]: 3 h and ~ 3 h
18 | CC1=C(CCCC(=O)N[C@H](Cc2ccccc2)C(=O)O)C(=O)c2ccccc2C1=O [UTAS#94] |  |  | cytoprotection (in words) (HepG2 cells [2]; selection for the current study): not cytoprotective enough
